Results: paper PMC5546478 (Oncotarget, 2017)
pIC50: −log10 of the molar value. “Also recorded” adds a separate entry of the source. Structures can show the parent of a compound that is named as a salt. Where two headings read alike, the source gives them in different places.

Legend:
WT IDH1 = target: T1, WT IDH1 (Homo sapiens, UniProt O75874); assay: In vitro enzyme inhibition assay, WT IDH1 (NADPH production); assay type: biochemical; details: for pIC50 / IC50 for enzyme activities, WT: n.p = no clear inhibitory detected; for pIC50: read-out: IC50 for enzyme activities, WT
T1 construct: made in house
T1 sequence (O75874 whole entry): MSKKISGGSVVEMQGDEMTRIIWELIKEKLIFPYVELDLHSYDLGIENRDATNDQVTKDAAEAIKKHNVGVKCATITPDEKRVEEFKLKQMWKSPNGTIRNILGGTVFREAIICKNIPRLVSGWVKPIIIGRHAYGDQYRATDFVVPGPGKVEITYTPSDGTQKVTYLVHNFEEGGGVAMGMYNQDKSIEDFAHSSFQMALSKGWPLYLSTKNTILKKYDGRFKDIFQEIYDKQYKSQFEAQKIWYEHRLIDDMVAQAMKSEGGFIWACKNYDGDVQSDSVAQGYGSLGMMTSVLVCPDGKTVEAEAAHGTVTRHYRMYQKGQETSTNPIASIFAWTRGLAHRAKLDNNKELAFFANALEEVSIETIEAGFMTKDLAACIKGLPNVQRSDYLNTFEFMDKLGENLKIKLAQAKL
Method: For inhibition assay, firstly, triplicate samples of compounds were incubated with the protein for 5 min.

HT1080 cells = assay: Flow cytometric analysis for apoptosis (Annexin V/PI); assay type: cell-based, human; details: control 2%
Method: Then the cells were harvested, washed twice with ice-cold PBS, and mixed in 100 μL of 1 × binding buffer (10 mM HEPES/NaOH, pH 7.4, 140 mM NaCl, 2.5 mM CaCl2). After culturing for 15 min at room temperature in Annexin-V/PI (Nanjing KeyGen Biotech. Inc.) double staining liquid, the cells were examined by flow cytometry (BD Biosciences, FACSCalibur).

H3K9me3 in HT1080 cells [1] = assay: Immunocytochemical staining of H3K9me3; assay type: cell-based, human
Method: We seeded the cells at 2×10^5 per well (Lab-Tek II chamber slide, Nalgen Nunc International, Naperville, IL). 48 hours after incubation, cells were fixed with PBS (−) containing 4% paraformaldehyde for 15 minutes, and rendered permeable with PBS (−) containing 0.1% Triton X-100 at 4 °C for 2.5 minutes. Subsequently, the cells were covered with 3% bovine serum albumin in PBS (−) at 4 °C for 12 hours to block nonspecific hybridization followed by incubation with an H3K9me3 antibody diluted at 1:100. After washing with PBS (−), the cells were stained by an Alexa 594-conjugated anti-mouse secondary antibody (Molecular Probes, Eugene, OR) diluted at 1: 1,000. Nuclei were counterstained with (DAPI). Fluorescent images were obtained under a TCS SP2 AOBS microscope (Leica, Tokyo, Japan).

H3K9me3 in HT1080 cells [2] = assay: Histone methylation H3K9me3 by western blot; assay type: cell-based, human; details: 48 hours
Method: The harvested cells were lysed with lysis buffer (50 mM Tris-HCl (pH 7.4), 150 mM NaCl, 1 mM EDTA, 1 mM EGTA, 10 mg/mL aprotinin, 10 mg/mL leupeptin, 5 mM phenylmethanesulfonyluoride (PMSF), 1 mM dithiolthreitol (DTT) containing 1% Triton X-100). Insoluble debris was removed by centrifugation at 13000 rpm for 20 minutes, and the content of protein was determined using Bradford reagent (Bio-Rad, USA). Lysate protein (20-40 μg) was subjected to 12% SDS-PAGE and electrophoretically transferred to polyvinylidene difluoride membranes (PVDF) (Millipore, USA). The membranes were blocked with 5% non-fat milk for 1 h and then incubated with the respective specific primary antibody at 4 °C overnight. Protein bands were visualized using an enhanced chemiluminescence reagent (ECL Plus) (GE Healthcare, USA) after hybridization with a HRP conjugated secondary antibody. Band density was quantified using the Image J software program (NIH).

HT1080 xenograft = assay: Antitumor efficacy in HT1080 xenograft mouse model; assay type: in vivo, CB-17/Icr-scid mice; details: for Tumor weight: after 2 weeks' treatment, control 2.32 ± 0.93 g; for Tumor volume: model 1879.61±244.35
Excerpt: In the xenograft model, HT1080 cells were inoculated subcutaneously into the right flank of male CB-17/Icr-scid mice.

[3] = 50 and 100 mg/kg per day via gavage
Method: After 2 weeks’ treatment, all mice were then scarified and the average tumor weights were calculated.
CB-17/Icr-scid mice (male, 4 weeks old) were purchased from HFK Bioscience CO., LTD (Beijing, China). The animals were maintained under ‘specific pathogen-free’ conditions according to the guidelines established by Research Animal Resources, Laboratory Animal Center, Huazhong University of Science and Technology (Wuhan, China). […] HT1080 cells were inoculated subcutaneously (2 × 10^6 cells) into the right flank of each mouse in the three groups. Treatment was started after seven days of cells injection. […] For the vehicle group, 200 μL normal saline was administered to each mouse every day by i.g. The duration of the animal study was 22 days for HT1080 cells. The tumor volume was calculated from measurements of 3 diameters of the individual tumor based on the following formula: tumor volume (mm^3) = (length × width × height × 0.52). The mice were monitored until tumors reached 1 cm^3 total volume, at which time the mice were euthanized and the tumors were extracted.

[4] = system: mutant IDH1 (D-2HG production); assay: D-2HG concentrations in tumors and serum of HT1080 xenograft mice; assay type: in vivo, CB-17/Icr-scid mice; details: for percentage inhibition of D-2HG production in tumor tissue: normalized to control group; for R-2HG level in serum: model 5.97 ±2.58; for R-2HG level in tumor tissue: model 364.01 ±118.43
[5] = system: H3K9me3 in HT1080 tumor tissue; assay: Immunohistochemistry for H3K9me3 in xenograft tumor tissues; assay type: in vivo, CB-17/Icr-scid mice; details: clomifene treated groups (50, 100 mg/kg) vs vehicle
Method: We then examined D-2HG concentrations in tumors and serum.
HT1080 cells were inoculated subcutaneously (2 × 10^6 cells) into the right flank of each mouse in the three groups. Treatment was started after seven days of cells injection. […] For the vehicle group, 200 μL normal saline was administered to each mouse every day by i.g. The duration of the animal study was 22 days for HT1080 cells. The tumor volume was calculated from measurements of 3 diameters of the individual tumor based on the following formula: tumor volume (mm^3) = (length × width × height × 0.52). The mice were monitored until tumors reached 1 cm^3 total volume, at which time the mice were euthanized and the tumors were extracted. The tumors were dissected and sent for immunohistochemical analysis and western blot analysis.

mutant IDH1 = details: cited from earlier work

Structure (SMILES): O=C(NC[C@H]1CN(c2ccc(N3CCOCC3=O)cc2)C(=O)O1)c1ccc(Cl)s1 [Rivaroxaban]
- pIC50 (WT IDH1): < 3.70

Structure (SMILES): OC(Cn1cncn1)(Cn1cncn1)c1ccc(F)cc1F [Fluconazole]
- IC50 for enzyme activities, WT (WT IDH1): n.p

Structure (SMILES): CN(C)c1cc(NC(=O)CNC(C)(C)C)c(O)c2c1C[C@H]1C[C@H]3[C@H](N(C)C)C(O)=C(C(N)=O)C(=O)[C@@]3(O)C(O)=C1C2=O [Tigecycline]
- IC50 for enzyme activities, WT (WT IDH1): n.p

Structure (SMILES): CCN(CC)CCOc1ccc(C(=C(Cl)c2ccccc2)c2ccccc2)cc1 [Clomifene]
- apoptotic death (HT1080 cells; 10 μM): 12.88%
- apoptotic death (HT1080 cells; 20 μM): 23.61%
- mutant IDH1-mediated H3K9me3 (H3K9me3 in HT1080 cells [1]): substantially and dose-dependently decreased
- level of histone methylation (H3K9me3) (H3K9me3 in HT1080 cells [2]): significantly reduced; also recorded: markedly decrease
- percentage inhibition of tumor volume (HT1080 xenograft; 50 mg/kg per day via gavage): 51.71%
- percentage inhibition of tumor weight (HT1080 xenograft; 50 mg/kg per day via gavage): 38.36%
- Tumor weight (HT1080 xenograft; 50 mg/kg per day via gavage): 1.43 ± 0.42 g
- percentage inhibition of tumor weight (HT1080 xenograft; 50 mg/kg per day via gavage, listed as clomifene): about 60%
- Tumor volume (HT1080 xenograft; 50 mg/kg per day via gavage): 907.73±176.63 mm3
- percentage inhibition of tumor volume (HT1080 xenograft; 100 mg/kg per day via gavage): 65.80%
- percentage inhibition of tumor weight (HT1080 xenograft; 100 mg/kg per day via gavage): 59.48%
- Tumor weight (HT1080 xenograft; 100 mg/kg per day via gavage): 0.94 ± 0.61 g
- Tumor volume (HT1080 xenograft; 100 mg/kg per day via gavage): 642.91±127.02 mm3
- tumor growth of HT1080-bearing mice (HT1080 xenograft; oral 100 mg/kg and 50 mg/kg per day): significantly suppressed
- effect on mouse body weight [3]: no effect
- effect on mouse body weight ([3]; listed as clomifene): no obvious side effects on animals’ growth
- percentage inhibition of R-2HG in serum ([4]; 50 mg/kg): 51.59%
- percentage inhibition of D-2HG production in tumor tissue ([4]; 50 mg/kg): 23.81%
- R-2HG level in serum ([4]; 50 mg/kg): 2.89 ± 1.06 µM
- R-2HG level in tumor tissue ([4]; 50 mg/kg): 277.34 ± 78.03 µg/g
- percentage inhibition of D-2HG production in tumor tissue ([4]; 100 mg/kg): 57.38%
- R-2HG level in serum ([4]; 100 mg/kg): 1.47 ± 1.38 µM
- R-2HG level in tumor tissue ([4]; 100 mg/kg): 155.12 ± 74.34 µg/g
- Effect on WT IDH1 (WT IDH1; at 200 μM): did not obviously alter
- pIC50 (WT IDH1): < 3.70
- expressions of H3K9me3 in tumor tissues [5]: substantially reduced

Structure (SMILES): CN(C)[C@@H]1C(O)=C(C(N)=O)C(=O)[C@@]2(O)C(O)=C3C(=O)c4c(O)ccc(Cl)c4[C@@H](O)[C@H]3C[C@@H]12 [Demeclocycline]
- IC50 for enzyme activities, WT (WT IDH1): n.p^e

Structure (SMILES): CO[C@@]1(NC(=O)Cc2cccs2)C(=O)N2C(C(=O)O)=C(COC(N)=O)CS[C@@H]21 [Cefoxitin sodium]
- pIC50 (WT IDH1): < 3.70

Structure (SMILES): CCCNCC(O)COc1ccccc1C(=O)CCc1ccccc1 (centres unmarked) [Propafenone Hydrochloride]
- IC50 for enzyme activities, WT (WT IDH1): n.p

Structure (SMILES): CC(C)(C)CC(C)(C)c1cc(Cn2ccnc2)c(O)c(Cn2ccnc2)c1 [2,6-bis (1H-imidazol-1-ylmethyl)-4-(2,4,4-trimethylpentan-2-yl) phenol]
- manner of inhibition of mutant IDH1 (mutant IDH1; ligand of crystal structure 4UMX, binds allosteric site): non-competitive and allosteric inhibitor

Structure (SMILES): Cc1ccccc1C(C(=O)NC1CCCCC1)N(C(=O)Cn1ccnc1C)c1cccc(F)c1 (centres unmarked) [AGI-5198]
- kinetic mechanism with respect to NADPH (mutant IDH1; mutant IDH1): uncompetitive
- kinetic mechanism with respect to α-KG (mutant IDH1; mutant IDH1): competitive inhibitor
- pIC50 (WT IDH1): < 3.70

Structure (SMILES): C=C1c2cccc(O)c2C(=O)C2=C(O)[C@]3(O)C(=O)C(C(N)=O)=C(O)[C@@H](N(C)C)[C@@H]3[C@@H](O)[C@H]12 [Metacycline]
- IC50 for enzyme activities, WT (WT IDH1): n.p

Structure (SMILES): COc1ccc(-c2ccc3cc(C(=O)O)ccc3c2)cc1C12CC3CC(CC(C3)C1)C2 [Adapalene]
- IC50 for enzyme activities, WT (WT IDH1): n.p
